# Reference: PubChem BioAssay AID1963433 (Molecular Pharmacology Branch, DTP, NCI, 2024)
# System: 772245-204-R-J1-PDC complex spheroid growth
# Experiment: Anticancer human tumor 772245-204-R-J1-PDC patient-derived rhabdomyosarcoma cell line growth inhibition [Asc]
# Conditions: for IC50: curve of first compound; for viability, T/C: stronger effect = lower value
# Summary of the method: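 Tumor cells were grown as complex spheroids with human endothelial cells (HUVEC) and human mesenchymal stem cells as stroma. Agents were tested alone and in combination, in half-log steps down from the clinical Cmax, or from 10 microM where Cmax was unknown.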
# 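Also: compound exposure lasted seven days.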
# 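For viability, T/C in this document: 100% = DMSO vehicle control viability.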
compound,measurement,setting,value
CNC(C)C(=O)NC1CN(S(=O)(=O)c2cccc(S(=O)(=O)N3CCC4CCC(C(=O)NC(c5ccccc5)c5ccccc5)N4C(=O)C(NC(=O)C(C)NC)C3)c2)CCC2CCC(C(=O)NC(c3ccccc3)c3ccccc3)N2C1=O (stereo not given) + CCN1C(C(=O)NC23CCC(C(=O)O)(CC2)CC3)C(c2cccc(Cl)c2F)C2(C(=O)Nc3cc(Cl)ccc32)C12CCCCC2,IC50,second compound 0.03 µM,> 1000 nM
same,IC50,second compound 0.0949 µM,> 1000 nM
same,IC50,second compound 0.3 µM,> 1000 nM
same,IC50,second compound 0.949 µM,> 1000 nM
same,IC50,second compound 3 µM,577 nM
same,"viability, T/C","second compound 0.03 µM, first compound 0.00316 µM",86.2%
same,"viability, T/C","second compound 0.03 µM, first compound 0.01 µM",102%
same,"viability, T/C","second compound 0.03 µM, first compound 0.0316 µM",88%
same,"viability, T/C","second compound 0.03 µM, first compound 0.1 µM",91.8%
same,"viability, T/C","second compound 0.03 µM, first compound 0.316 µM",94.9%
same,"viability, T/C","second compound 0.03 µM, first compound 1 µM",86.8%
same,"viability, T/C","second compound 0.0949 µM, first compound 0.00316 µM",94.5%
same,"viability, T/C","second compound 0.0949 µM, first compound 0.01 µM",98.9%
same,"viability, T/C","second compound 0.0949 µM, first compound 0.0316 µM",75.3%
same,"viability, T/C","second compound 0.0949 µM, first compound 0.1 µM",89.7%
same,"viability, T/C","second compound 0.0949 µM, first compound 0.316 µM",79.2%
same,"viability, T/C","second compound 0.0949 µM, first compound 1 µM",85.3%
same,"viability, T/C","second compound 0.3 µM, first compound 0.00316 µM",74.8%
same,"viability, T/C","second compound 0.3 µM, first compound 0.01 µM",83%
same,"viability, T/C","second compound 0.3 µM, first compound 0.0316 µM",84.6%
same,"viability, T/C","second compound 0.3 µM, first compound 0.1 µM",68.9%
same,"viability, T/C","second compound 0.3 µM, first compound 0.316 µM",70.8%
same,"viability, T/C","second compound 0.3 µM, first compound 1 µM",88.1%
same,"viability, T/C","second compound 0.949 µM, first compound 0.00316 µM",88.2%
same,"viability, T/C","second compound 0.949 µM, first compound 0.01 µM",87.4%
same,"viability, T/C","second compound 0.949 µM, first compound 0.0316 µM",78.8%
same,"viability, T/C","second compound 0.949 µM, first compound 0.1 µM",75.2%
same,"viability, T/C","second compound 0.949 µM, first compound 0.316 µM",73%
same,"viability, T/C","second compound 0.949 µM, first compound 1 µM",62.4%
same,"viability, T/C","second compound 3 µM, first compound 0.00316 µM",72.8%
same,"viability, T/C","second compound 3 µM, first compound 0.01 µM",62.2%
same,"viability, T/C","second compound 3 µM, first compound 0.0316 µM",60.2%
same,"viability, T/C","second compound 3 µM, first compound 0.1 µM",56.7%
same,"viability, T/C","second compound 3 µM, first compound 0.316 µM",43.2%
same,"viability, T/C","second compound 3 µM, first compound 1 µM",53.2%
